The values below come from the OPERA property sets (Mansouri et al. 2018).

As usually defined, the logP is a log measure of how a compound divides between an organic and an aqueous phase. In the case of `Oc1ccc(Cl)cc1Cc1cc(Cl)ccc1O`, the logP came to 4.26.
`Cc1cccc(OC(=O)CNC(=O)c2ccccc2)c1` registered a logP of 2.72.
With `CC(=O)Nc1ccccc1O` the figure was 0.72.
The result for `CCCCCn1cnc2c(N)ncnc21` reads 1.79; that for `CCCCOC(=O)c1ccc(O)cc1`, 3.57; that for `COc1cc2c(c(OC)c1OC)-c1ccc(O)c(=O)cc1C(NC(C)=O)CC2` (stereo not drawn), 1.2.
The result for `NC(=O)c1ccccc1C(N)=O` reads -1.73; that for `CC(=O)N[C@@H](CC(N)=O)C(=O)N[C@H](C(N)=O)C(C)C`, -1.85; that for `O=c1c2ccccc2oc2ccccc12`, 3.39.
Molecule `CC(=O)Oc1ccc(C)cc1` came in with a logP of 2.11.
`Oc1c(Cl)cccc1Cl` yielded a logP of 2.75.
The result for `O=C(O)COc1cccc(Cl)c1` reads 2.03.
The result for `Fc1ccccc1F` reads 2.37; that for `CC(C)Nc1nc(NC(C)(C)C)nc(SC(F)F)n1`, 4.7; that for `Cc1ccc(CC(=O)O)cc1`, 1.86.
`CCOC(=O)C(=Cc1ccc(Br)cc1)C(=O)OCC`: the logP stood at 4.02.
Turning to `CC(=O)c1ccc(S(N)(=O)=O)cc1`, the logP turned out to be 0.2.
The result for `ClC(Cl)C(Cl)Cl` reads 2.39.
On to `NC(=O)c1ccccc1N`, for which the logP is 0.35.
Molecule `O=C1NC(=O)C(c2cccnc2)N1` (stereo not drawn) registered a logP of -0.95.
With `NC(=O)C1CCN(CCCN2c3ccccc3Sc3ccc(Cl)cc32)CC1`, the logP stood at 4.44.
The result for `COC(=O)COc1ccccc1C` reads 2.08; that for `Cc1ccc(C=NO)cc1`, 2.4.
The result for `CN(C)C(N(C)C)=S(I)c1ccc(O)cc1` (stereo not drawn) reads -0.88; that for `CC(O)C(F)(F)F` (stereo not drawn), 0.71.
The result for `O=[N+]([O-])CCc1ccccc1` reads 2.08.
The molecule `CCNC(=O)c1ccco1` gave a logP of 0.61.
Regarding `CC1(C)C(C(=O)OC(C#N)c2cccc(Oc3ccccc3)c2)C1(C)C` (stereo not drawn), the lipophilicity (logP) worked out at 5.7.
The result for `ClC(Cl)=C(Cl)C(Cl)=C(Cl)Cl` reads 4.78; that for `OCCCc1nc2ccccc2[nH]1`, 1.25; that for `CCCC(=O)OCC(=O)C1(O)C(C)CC2C3CCC4=CC(=O)C=CC4(C)C3(F)C(O)CC21C` (stereo not drawn), 3.55.
On to `CNC(=S)NCCCCc1cnc[nH]1`, for which the logP was 0.39.
The result for `O=C(O)Cc1ccccc1Oc1ccc(Cl)cc1Cl` reads 4.8; that for `Nc1cccc(Br)c1`, 2.1; that for `C[n+]1cccc2ccccc21.[Br-]`, -2.64.
The result for `Clc1ccc(-c2ccccc2Cl)c(Cl)c1` reads 5.76; that for `CCCNC(=O)c1ccc(S(N)(=O)=O)cc1`, 0.51; that for `O=C(O)c1cccc(C(=O)O)c1`, 1.66.
With `Cc1cccc(C#N)n1` the figure was 0.84.
The molecule `Cc1ccc(C=C(C#N)C#N)cc1` registered a lipophilicity (logP) of 2.4.
With `O=Nc1c(Br)cc2ccccc2c1O` the figure was 2.93; with `c1cnc2ccc3ncccc3c2c1`, 2.05; with `Nc1ccc(-c2nc([N+](=O)[O-])c[nH]2)cc1`, 0.86.
With `CNC(=O)N(C)c1ccccc1` the figure was 1.02; with `CC1(C)SC2C(NC(=O)C(C(=O)Oc3ccccc3)c3ccccc3)C(=O)N2C1C(=O)O` (stereo not drawn), 3.14; with `Cn1ccccc1=O`, -0.23.
In the case of `O=[N+]([O-])c1cc(Br)c(O)c(Br)c1`, the logP was found to be 3.57.
In turn, `NS(=O)(=O)c1ccc([N+](=O)[O-])cc1` showed a logP of 0.64.
The molecule `CC=C(C)C1(C)CC(=O)C(C(CCC)=NOCC)C(=O)O1` (stereo not drawn) displayed a logP of 3.4.
Turning to `O=C(O)c1ccccc1F`, the logP came out at 1.77.
The result for `Nc1nc2cc(Cl)ccc2[nH]1` reads 1.88.
With `CCOC(OCC)OCC` the figure was 1.2; with `CCCNC`, 0.84.
Molecule `CCCn1cnc([N+](=O)[O-])n1` returned a logP of 0.3.
With `CC(=O)Oc1ccc([N+](=O)[O-])cc1` the figure was 1.5; with `O=C1CC(=O)N(c2ccccc2)N1c1ccccc1`, 1.45; with `CCN(CC)CCOC(=O)C=Cc1cc(OC)c(OC)c(OC)c1`, 2.84.
The result for `C1=C(c2ccccc2)CCCC1` reads 4.53.
The molecule `O=C(O)c1cc(Cl)ccc1O` had a logP of 3.09.
The result for `CCCCCCC(NC(C)=O)C(=O)OC` (stereo not drawn) reads 1.7; that for `CCN(CC)C(=O)C(C)Oc1cccc2ccccc12` (stereo not drawn), 3.36.
The result for `Oc1ccc(O)cc1` reads 0.59; that for `CN(C)C(N(C)C)=S(I)c1cccc(I)c1` (stereo not drawn), 0.29; that for `C=CCc1ccccc1OCC(O)CNC(C)C` (stereo not drawn), 3.1.
The result for `Cc1cc(N)ncn1` reads 0.19.
`COc1cccc(OC)c1C(=O)N[C@@H]1C(=O)N2[C@@H]1SC(C)(C)[C@@H]2C(=O)O`: the logP was found to be 1.22.
Regarding `C1COCCOCCOCCO1`, the logP is -0.04.
The result for `O=C1CN=C(c2ccccc2)c2cc(Cl)ccc2N1CC1CC1` reads 3.73.
With `CC[N+](=O)[O-]` the figure was 0.18; with `NCCc1cccnc1`, -0.11; with `c1ccc2ncccc2c1`, 2.03.
`NCc1cccnc1` came in with a logP of -0.32.
With `CNc1ccc([N+](=O)[O-])cc1` the figure was 2.04; with `CCCC(=O)Nc1ccccc1`, 2.05.
With `CCCCCOC(=O)Nc1ccccc1` the figure was 3.8; with `CNC(=O)Oc1ccc(C)cc1`, 1.66; with `O=C(O)Cc1cccc([N+](=O)[O-])c1`, 1.45.
With `Cc1c(CC(=O)O)sc2ccc(Cl)cc12` the figure was 3.92.
The molecule `FC(F)(F)c1nc2c(Cl)c(Cl)ccc2[nH]1` came in with a logP of 3.49.
With `NCCCCc1ccncc1` the figure was 0.86; with `COc1cccc(Cl)c1`, 2.98; with `CC(CN(C)C)CN1c2ccccc2S(=O)(=O)c2ccccc21` (stereo not drawn), 2.51.
The result for `NC(Cc1ccc2ccccc2c1)C(=O)O` (stereo not drawn) reads -0.15.
The result for `CNC(=O)ON=CC(C)(C)SC` reads 1.13; that for `CC(=O)c1ccc2cccccc1-2`, 2.87.
Take `COc1ccccc1NCC(N)=O`: the logP was 0.78.
The result for `O=S(=O)(Nc1ccccc1)C(F)(F)F` reads 3.05; that for `CN(C)C1=CC(=O)c2ccccc2C1=O`, 1.9; that for `CNCCOc1cc(C)c(O)cc1C(C)C`, 2.35.
`CCCc1ccc(S(N)(=O)=O)cc1` had a logP of 1.64.
With `CNCC(O)c1ccc(O)cc1` (stereo not drawn) the figure was -0.45; with `CCCCC(=O)O[C@]1(C(=O)CO)CC[C@H]2[C@@H]3CCC4=CC(=O)CC[C@]4(C)[C@H]3[C@@H](O)C[C@@]21C`, 3.79; with `O=c1ccnc(S)[nH]1`, -0.28.
The result for `c1ccc(C23CCN(CC2)CC3)cc1` reads 2.54; that for `O=CNc1ccc(F)cc1`, 1.27; that for `NC(C(=O)O)c1ccccc1` (stereo not drawn), -1.7.
The result for `CNC(=O)OCc1c2c(n3c1C(OC(C)=O)CC3)C(=O)C(Cl)=C(OC)C2=O` (stereo not drawn) reads 2.08; that for `OC1(c2ccc(Cl)cc2)CCN(CCCC2(c3ccc(F)cc3)OCCO2)CC1`, 3.84.
In turn, `NC(CC(=O)O)c1ccccc1` (stereo not drawn) had a logP of -1.4.
The result for `O=[N+]([O-])c1cc2ccccc2nn1` reads 0.73; that for `COc1ccccc1OCC(=O)O`, 0.98.
With `CCOC(=O)CC` the figure was 1.21; with `CC(=O)c1cccc(F)c1`, 1.77.
The result for `O=C(NO)c1ccccc1` reads 0.26; that for `CCOC(=O)NCCOc1ccc(Oc2ccccc2)cc1`, 4.3; that for `CC(=O)C(C)=O`, -1.34.
With `CCCCCCCC(C)=O`, the logP came out at 3.14.
With `CCOCCOCC` the figure was 0.66; with `CCCCOC(=O)n1cnc(CSCCNC(=NC#N)NC)c1C`, 2.15.
`CCCCCCCN(C)/N=N/c1ccc(C(N)=O)cc1` showed a logP of 4.2.
The result for `CCCCCC[N+](=O)[O-]` reads 2.7.
With `NCCCc1cccnc1` the figure was 0.44.
With `O=NN(CC(F)(F)F)CC(F)(F)F` the figure was 2.15; with `COC(=O)c1ccc(C(=O)OC)cc1`, 2.25; with `NNS(=O)(=O)c1ccccc1`, -0.14.
As to `C=C[C@@]12COC(=O)C(=C)[C@@H]1[C@H]1OC(=O)C(=C)[C@@H]1[C@@H](O)C2`, the logP was 0.31.
The result for `CC1OC(C)OC(C)O1` (stereo not drawn) reads 0.67; that for `COP(=O)(OC)C(O)C(Cl)(Cl)Cl` (stereo not drawn), 0.51.
With `Brc1ccsc1Br` the figure was 3.53; with `CCC(C)NC(=O)C(=Cc1ccccc1)SC` (stereo not drawn), 3.03.
The result for `CN(CC(O)COc1ccccc1)CC(O)COc1ccccc1` (stereo not drawn) reads 2.92; that for `CNC1CC2CCC1c1ccccc12` (stereo not drawn), 2.68.
For `NS(=O)(=O)c1nc2ccccc2s1`, the logP is 1.33.
With `COc1cc(CC(=O)O)ccc1OC(C)C`, the log partition coefficient (logP) came to 1.75.
The result for `Nc1ccccc1F` reads 1.26.
The result for `CNC(=O)ON=Cc1ccccc1` reads 1.49; that for `Clc1ccc(-c2ccc(Cl)c(Cl)c2Cl)cc1`, 5.84; that for `C=CCCCCCCCCC(=O)O`, 3.86.
Molecule `CNCC(CC(C)C)c1ccccc1` (stereo not drawn) registered a logP of 3.76. This logP and that of the molecule before are within 0.2 log units of each other.
The result for `C=C1C(=O)OC2CC(C)C3C=CC(=O)C3(C)CC12` (stereo not drawn) reads 1.17; that for `O=NN1CCCC(O)C1` (stereo not drawn), -0.47.
The result for `CCN(CC)C(=O)C1C2CC3C(OC(=O)C31)C2O` (stereo not drawn) reads 0.15.
The result for `FC(F)(Cl)C(F)(F)Cl` reads 2.82; that for `CCOP(=S)(OCC)Oc1ccc(S(C)=O)cc1` (stereo not drawn), 2.23.
As to `COc1ccc(S(I)=C(N(C)C)N(C)C)cc1` (stereo not drawn), the logP was -0.51.
With `COc1ccccc1NCC(C)=O` the figure was 1.49; with `N#Cc1cccc2cccnc12`, 1.39.
The result for `COC(=O)c1ccc(N=NN(C)C)cc1` reads 3.22.
